What was measured:
[1] = system: Rat; test: concentration in brain after dosing; conditions: 0.75 h; dosed: 2-Methyltetrahydrofuran; 40 mg/kg; iv; Male; Harlan Sprague Dawley
[2] = system: Rat; test: concentration in plasma after dosing; conditions: 0.2 h; dosed: 2-Methyltetrahydrofuran; 40 mg/kg; iv; Male; Harlan Sprague Dawley
[3] = system: Rat; test: concentration in plasma after dosing; conditions: 0.2 h; dosed: 2-Methyltetrahydrofuran; 40 mg/kg; iv; Male; Harlan Sprague Dawley; remark: listed apart in the source
[4] = system: rat; test: concentration in expired air after dosing; conditions: dosed: trichloroethylene, male
[5] = system: Rat; test: concentration in brain after dosing; conditions: 3 h; dosed: Perfluorohexanoic Acid; 80 mg/kg; oral; Male; Harlan Sprague Dawley
[6] = system: Rat; test: concentration in plasma after dosing; conditions: dosed: Perfluorohexanoic Acid, 40 mg/kg, oral, Male, Harlan Sprague Dawley
[7] = system: Rat; test: concentration in liver after dosing; conditions: 3 h; dosed: Perfluorohexanoic Acid; 80 mg/kg; oral; Female; Harlan Sprague Dawley
[8] = system: Rat; test: concentration in brain after dosing; conditions: 1 h; dosed: Perfluorohexanoic Acid; 80 mg/kg; oral; Male; Harlan Sprague Dawley
[9] = system: Rat; test: concentration in plasma after dosing; conditions: 1 h; dosed: Perfluorohexanoic Acid; 40 mg/kg; iv; Male; F344
[10] = system: Rat; test: concentration in plasma after dosing; conditions: 1 h; dosed: Gemfibrozil; 4.29 mg/kg; oral; Male; Sprague-Dawley
[11] = system: Rat; test: concentration in plasma after dosing; conditions: 0.5 h; dosed: Gemfibrozil; 50 mg/kg; oral; Male; Sprague-Dawley
[12] = system: Rat; test: concentration in liver after dosing; conditions: 24 h; dosed: Perfluorooctane Sulfonate; 20 mg/kg; oral; Male; Harlan Sprague Dawley
[13] = system: Rat; test: concentration in liver after dosing; conditions: 1848 h; dosed: Perfluorooctane Sulfonate; 2 mg/kg; oral; Female; Harlan Sprague Dawley
[14] = system: Rat; test: concentration in liver after dosing; conditions: 6 h; dosed: Perfluorooctane Sulfonate; 2 mg/kg; oral; Female; Harlan Sprague Dawley
[15] = system: Rat; test: concentration in plasma after dosing; conditions: 864 h; dosed: Perfluorooctane Sulfonate; 2 mg/kg; oral; Female; Harlan Sprague Dawley
[16] = system: Rat; test: concentration in liver after dosing; conditions: 6 h; dosed: Perfluorooctane Sulfonate; 20 mg/kg; oral; Female; F344
[17] = system: Rat; test: concentration in liver after dosing; conditions: 24 h; dosed: Perfluorooctane Sulfonate; 20 mg/kg; oral; Female; F344
[18] = system: Rat; test: concentration in kidney after dosing; conditions: 24 h; dosed: Perfluorooctane Sulfonate; 2 mg/kg; oral; Female; Harlan Sprague Dawley
[19] = system: Rat; test: concentration in liver after dosing; conditions: 3 h; dosed: Fluorotelomer alcohol 8+2; 24 mg/kg; oral; Male; Harlan Sprague Dawley
[20] = system: Rat; test: concentration in liver after dosing; conditions: 3 h; dosed: Fluorotelomer alcohol 8+2; 80 mg/kg; oral; Female; Harlan Sprague Dawley
[21] = system: Rat; test: concentration in plasma after dosing; conditions: 192 h; dosed: Fluorotelomer alcohol 8+2; 24 mg/kg; oral; Male; Harlan Sprague Dawley
[22] = system: Rat; test: concentration in plasma after dosing; conditions: 192 h; dosed: 678-39-7; 40 mg/kg; iv; Male; F344
[23] = system: Rat; test: concentration in brain after dosing; conditions: 6 h; dosed: Fluorotelomer alcohol 8+2; 24 mg/kg; oral; Male; Harlan Sprague Dawley
[24] = system: Rat; test: concentration in liver after dosing; conditions: 1 h; dosed: Fluorotelomer alcohol 8+2; 80 mg/kg; oral; Female; Harlan Sprague Dawley

CC1CCCO1 (centres undefined) [2-Methyltetrahydrofuran]
Conditions	concentration in brain [µg/mL]	concentration in plasma [µg/mL]
[1]	11.4	–
[2]	–	37.6
[3]	–	32.2

ClC=C(Cl)Cl [trichloroethylene]
concentration in expired air [µg/mL], [4], inhalation, duration: 2 hr, Sprague Dawley
Conditions	50 ppm	500 ppm
0.1579 h	–	1.57
0.1611 h	0.155	–
0.242 h	0.178	–
0.2441 h	–	1.63
0.3273 h	–	1.62
0.3301 h	0.176	–
0.4933 h	0.177	1.73
0.6596 h	–	1.73
0.6597 h	0.179	–
0.8258 h	–	1.8
0.8264 h	0.173	–
0.9952 h	–	1.83
0.9958 h	0.179	–
1.165 h	0.188	1.85
1.328 h	–	1.74
1.332 h	0.184	–
1.497 h	–	1.84
1.498 h	0.193	–
1.661 h	0.185	–
1.664 h	–	1.82
1.825 h	0.183	–
1.83 h	–	1.91
1.991 h	0.178	–
2 h	–	1.79
2.008 h	0.0618	–
2.016 h	–	0.704
2.04 h	0.0354	–
2.049 h	–	0.532
2.071 h	0.0305	–
2.081 h	–	0.458
2.103 h	0.00892	–
2.113 h	–	0.399
2.157 h	0.0173	–
2.161 h	–	0.379
2.238 h	0.0138	–
2.248 h	–	0.359
2.493 h	0.0102	–
2.501 h	–	0.221
2.741 h	0.00787	–
2.754 h	–	0.152
2.992 h	0.00793	–
3 h	–	0.0973
3.244 h	0.00559	–
3.25 h	–	0.082
3.495 h	0.00205	–
3.502 h	–	0.0521
3.746 h	0.000904	0.0221
3.994 h	0.00217	–
3.998 h	–	0.0265
4.494 h	0.00108	–
4.501 h	–	0.0255
4.996 h	0.0012	–
5 h	–	0.0147
40 s	0.129	–
42 s	–	1.27
151 s	0.148	–
167 s	–	1.44
285 s	0.161	–
293 s	–	1.5

[4], 6 mg/kg, oral, Wistar
Conditions	concentration in expired air [ppm]
0.1223 h	4.6
0.1642 h	3.99
0.219 h	3.8
0.2464 h	2.7
0.4982 h	1.12
0.7463 h	0.349
1 h	0.198
1.245 h	0.161
1.496 h	0.113
1.748 h	0.0858
2 h	0.0858
99 s	0.987
289 s	3.59

O=C(O)C(F)(F)C(F)(F)C(F)(F)C(F)(F)C(F)(F)F [Perfluorohexanoic Acid]
Conditions	concentration in brain [ng/g]	concentration in liver [ng/g]	concentration in plasma [ng/mL]
[5]	1460	–	–
[7]	–	14700	–
[8]	2670	–	–
[9]	–	–	3100

[6]
Conditions	concentration in plasma [ng/mL]
3 h	48700
5 min	28800

Cc1ccc(C)c(OCCCC(C)(C)C(=O)O)c1 [Gemfibrozil]
Conditions	concentration in plasma [µg/mL]
[10]	0.142
[11]	4.64

O=S(=O)([O-])C(F)(F)C(F)(F)C(F)(F)C(F)(F)C(F)(F)C(F)(F)C(F)(F)C(F)(F)F [Perfluorooctane Sulfonate]
Conditions	concentration in kidney [ng/g]	concentration in liver [ng/g]	concentration in plasma [ng/mL]
[12]	–	164000	–
[13]	–	5680	–
[14]	–	27200	–
[15]	–	–	1490
[16]	–	139000	–
[17]	–	160000	–
[18]	14600	–	–

O=C(O)CCC(F)(F)C(F)(F)C(F)(F)C(F)(F)C(F)(F)C(F)(F)C(F)(F)F [Fluorotelomer acid 7+3]
Conditions	concentration in brain [ng/g]	concentration in liver [ng/g]	concentration in plasma [ng/mL]
[19]	–	2680	–
[20]	–	11400	–
[21]	–	–	62.9
[22]	–	–	48.1
[23]	179	–	–
[24]	–	1340	–
